Reference: patent publication US6423519B1, “Compositions and methods for inhibiting fungal growth” (GPC Biotech Inc., priority 1998, dated 2002)
Like-named read-outs stand apart in the source and are kept apart here. Peptide text beside a SMILES is read from it.

Assays:
Hu FT = Hu FT (Homo sapiens, UniProt P49356); test: Human FT inhibition (Hu FT); format: biochemical; conditions: Table 3 Piperidine Analogs
human GGTase = human GGTase (Homo sapiens, UniProt P53609); test: Human GGTase inhibition (Hu GG); format: biochemical; conditions: read-out: IC50 (nM) Hu GG
Text: As described below, a variety of different compounds were synthesized and tested for inhibitory activity against human and Candida GGTase. Exemplary synthesis schemes for generating prenyltransferase inhibitors useful in the methods and compositions of the present invention are shown in FIGS. 1-56. Tables 1-5 provide Structure-Activity relationship (SAR) data for several different classes of prenyltransferase inhibitors.

C. albicans GGPTase = target: T1, C. albicans GGPTase (Candida albicans, UniProt Q8J224+Q9Y764); test: biochemical; conditions: read-out: IC50 (nM) Ca GG
T1 sequence (Q9Y764 1-398): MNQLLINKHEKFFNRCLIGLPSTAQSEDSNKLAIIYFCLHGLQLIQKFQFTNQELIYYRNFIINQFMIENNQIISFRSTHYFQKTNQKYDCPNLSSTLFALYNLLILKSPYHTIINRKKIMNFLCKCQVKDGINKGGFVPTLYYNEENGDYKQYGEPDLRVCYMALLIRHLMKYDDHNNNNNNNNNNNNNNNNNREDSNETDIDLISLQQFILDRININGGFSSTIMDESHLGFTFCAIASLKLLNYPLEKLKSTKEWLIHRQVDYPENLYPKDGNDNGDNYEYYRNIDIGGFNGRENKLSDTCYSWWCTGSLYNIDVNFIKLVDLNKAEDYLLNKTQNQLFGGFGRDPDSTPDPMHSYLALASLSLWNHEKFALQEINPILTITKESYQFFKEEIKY
T1 sequence (Q8J224 1-306): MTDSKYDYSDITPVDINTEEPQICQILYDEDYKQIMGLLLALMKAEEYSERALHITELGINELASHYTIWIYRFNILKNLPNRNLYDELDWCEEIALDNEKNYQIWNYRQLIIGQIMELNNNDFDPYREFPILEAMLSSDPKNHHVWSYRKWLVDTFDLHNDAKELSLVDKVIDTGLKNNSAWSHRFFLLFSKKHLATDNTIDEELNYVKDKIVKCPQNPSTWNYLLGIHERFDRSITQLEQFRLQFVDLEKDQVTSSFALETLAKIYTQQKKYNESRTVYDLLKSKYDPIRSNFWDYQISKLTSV
Procedure: Plate test compounds (10 μL per well) at predetermined concentration in 50% DMSO. For background control (blank) and reaction control (negative), add 10 μL of 200 μM GGPP and 10 μL 50% DMSO, respectively. Prepare assay buffer: 50 mM Tris, pH7.5, 20 mM KCL, 5 mM MgCl2, 5 μM ZnCl2, 0.5 mM Zw(3-14), 2 mM DTT and 0.1 mg/mL BSA.
Add 20 μL of C. albicans GGPTase and ^3H-GGPP in assay buffer to test compound. Preincubate enzyme and ^3H-GGPP with test compound for 15 minutes at room temperature. Add 20 μL C. albicans Rho in assay buffer. Incubate for 30 minutes at room temperature. Final assay conditions are 2 nM C. albicans GGPTase, 250 nM ^3H-GGPP and 250 nM C. albicans Rho.
Add 100 μL 15 mM GGPP, 50 mM Tris, pH7.0 and 2% BSA to quench reaction. Transfer reaction to Nickel chelate FlashPlate. Allow his-tagged C. albcians Rho to capture onto plate. Rinse plate 1× with 200 μL 20 mM Tris, pH7.0. Read in TOPCOUNT.

Cryp GG = Cryp GG inhibition; format: biochemical
Asp GG = Asp GG inhibition; format: biochemical
C. albicans = test: In vitro susceptibility testing of compounds in C. albicans (MIC); format: cell-based; conditions: for MIC: Candida albicans, read-out: MIC (μg/mL) C alb; for MIC (μg/mL) C alb: Table 1
Procedure: 1: Innoculate strain C. albicans strain such as SC5314 into 20 mL of the appropriate medium and incubate at 35° C. with shaking (220 rpm) overnight
2: Count the C. albicans cells in a 1:10 dilution of the overnight culture using a haemocytometer.
3: Work out the dilution factor required to bring the cell number to 1×10^3 cells/100 μL (equivalent to 1×10^4 cells/mL) then add the required volume of the overnight culture to 25 mL media in a falcon tube.
4: Vortex the diluted cells and immediately pipette 100 μL of the cell suspension to each of the required rows of a 96 well plate using the multipipettor.
5: Prepare each of the 100×stock solutions for the compounds to be tested in DMSO in the required concentration range in Eppendorf tubes.
6: The dilution series for each of the compounds may now be prepared in sequence:
For each compound—start with highest dilution. Add 10 μL compound in DMSO to the 490 μL of appropriate media. Immediately vortex and add 100 μL to the appropraite row of cells on the 96-well plate. Repeat this process for the next and subsequent concentrations of this compound before starting on the dilution series for additional compounds.
7: When complete cover the 96-well plate with an acetate sheet and incubate at 35° C. Inspect visually and record results for both plates at the 24 hr and 48 hr. The MIC corresponds to the concentration of compound where no visible growth is observed.

SMILES	IC50 (Hu FT) [nM]	IC50 (human GGTase; Table 3 Piperidine Analogs) [nM]	IC50 (C. albicans GGPTase; Table 3 Piperidine Analogs) [nM]	other results
N[C@@H](CS)C(=O)N1CCC(C(=O)N[C@@H]2C[C@H]2c2ccccc2)(c2ccccc2)CC1 (relative stereo) [Compound 53v]	> 1000	> 1000	< 10	
N[C@@H](CS)C(=O)N1CCC(C(=O)NCc2cccc(-c3ccccc3)c2)(c2ccccc2)CC1 [Compound 53e]	> 1000	> 1000	< 100	
N[C@@H](CS)C(=O)N1CCC(C(=O)NCCCN2CCOCC2)(c2ccccc2)CC1 [Compound 53f]	> 1000	> 1000	< 500	IC50 (Cryp GG; Table 3 Piperidine Analogs): > 1000 nM; IC50 (Asp GG; Table 3 Piperidine Analogs): > 1000 nM
N[C@@H](CS)C(=O)N1CCC(C(=O)NCCN2CCCC2)(c2ccccc2)CC1 [Compound 53g]	> 1000	> 1000	< 100	
N[C@@H](CS)C(=O)N1CCC(C(=O)NCc2nc3ccccc3[nH]2)(c2ccccc2)CC1 [Compound 53h]	> 1000	> 1000	< 100	
CC(C)C[C@H](NC(=O)C1(c2ccccc2)CCN(C(=O)[C@@H](N)CS)CC1)C(N)=O [Compound 53i]	> 1000	< 100	< 100	
N[C@@H](CS)C(=O)N1CCC(C(=O)NCCCn2ccnc2)(c2ccccc2)CC1 [Compound 53j]	> 1000	> 1000	< 100	
N[C@@H](CS)C(=O)N1CCC(C(=O)NCc2ccncc2)(c2ccccc2)CC1 [Compound 53k]	> 1000	> 1000	< 10	IC50 (Cryp GG; Table 3 Piperidine Analogs): > 1000 nM; IC50 (Asp GG; Table 3 Piperidine Analogs): > 1000 nM
N#CC1CCC(CNC(=O)C2(c3ccccc3)CCN(C(=O)[C@@H](N)CS)CC2)CC1 (some centres unmarked) [Compound 53n]	> 1000	> 1000	< 100	
N[C@@H](CS)C(=O)N1CCC(C(=O)NCC(=O)Nc2ccc3ccccc3c2)(c2ccccc2)CC1 [Compound 53o]		> 1000	< 1000	IC50 (Cryp GG; Table 3 Piperidine Analogs): > 1000 nM; IC50 (Asp GG; Table 3 Piperidine Analogs): > 1000 nM
N[C@@H](CS)C(=O)N1CCC(C(=O)NCc2cccc(OC(F)(F)F)c2)(c2ccccc2)CC1 [Compound 53p]	> 1000	< 1000	< 100	
N[C@@H](CS)C(=O)N1CCC(C(=O)NCc2ccc3c(c2)OCO3)(c2ccccc2)CC1 [Compound 53q]	> 1000	> 1000	< 100	
N[C@@H](CS)C(=O)N1CCC(C(=O)NCc2ccc(F)cc2F)(c2ccccc2)CC1 [Compound 53r]	> 1000	> 1000	< 100	
COc1ccccc1CNC(=O)C1(c2ccccc2)CCN(C(=O)[C@@H](N)CS)CC1 [Compound 53u]	> 1000	> 500	< 100	
N[C@@H](CS)C(=O)N1CCC(C(=O)NCc2cccc3ccccc23)(c2ccccc2)CC1 [Compound 53w]	> 1000	> 500	< 100	
N[C@@H](CS)C(=O)N1CCC(C(=O)NC2c3ccccc3-c3ccccc32)(c2ccccc2)CC1 [Compound 53z]	> 1000	> 1000	< 100	IC50 (Cryp GG; Table 3 Piperidine Analogs): > 1000 nM; IC50 (Asp GG; Table 3 Piperidine Analogs): > 1000 nM
NC[C@H](NC(=O)[C@@H](N)CS)C(=O)NCc1cccc2ccccc12 [Compound 89a]				MIC (C. albicans): > 200 µg/mL; MIC (μg/mL) C alb (C. albicans): >200 µg/mL; IC50 (Cryp GG; Table 1): > 1000 nM; IC50 (Cryp GG; Table 1 Peptide Analogs): > 1000 nM; IC50 (human GGTase; Table 1): > 1000 nM; IC50 (human GGTase; Table 1 Peptide Analogs): > 1000 nM; IC50 (C. albicans GGPTase; Table 1): < 1000 nM; IC50 (C. albicans GGPTase; Table 1 Peptide Analogs): < 1000 nM
NC[C@H](NC(=O)[C@@H](N)CS)C(=O)NCc1cccc(-c2ccccc2)c1 [Compound 89b]				MIC (C. albicans): > 200 µg/mL; MIC (μg/mL) C alb (C. albicans): >200 µg/mL; IC50 (human GGTase; Table 1): > 1000 nM; IC50 (human GGTase; Table 1 Peptide Analogs): > 1000 nM; IC50 (C. albicans GGPTase; Table 1): < 500 nM; IC50 (C. albicans GGPTase; Table 1 Peptide Analogs): < 500 nM
NC[C@H](NC(=O)[C@@H](N)CS)C(=O)N1CCC(C(=O)NCc2ccncc2)(c2ccccc2)CC1 [Compound 89c]				IC50 (Cryp GG; Table 1): > 1000 nM; IC50 (Cryp GG; Table 1 Peptide Analogs): > 1000 nM; IC50 (human GGTase; Table 1): > 1000 nM; IC50 (human GGTase; Table 1 Peptide Analogs): > 1000 nM; IC50 (Asp GG; Table 1): > 1000 nM; IC50 (Asp GG; Table 1 Peptide Analogs): > 1000 nM; IC50 (C. albicans GGPTase; Table 1): < 1000 nM; IC50 (C. albicans GGPTase; Table 1 Peptide Analogs): < 1000 nM
NC[C@H](NC(=O)[C@@H](N)CS)C(=O)N1CCC(Cc2ccccc2)CC1 [Compound 89f]				IC50 (human GGTase; Table 1): > 1000 nM; IC50 (human GGTase; Table 1 Peptide Analogs): > 1000 nM; IC50 (C. albicans GGPTase; Table 1): < 1000 nM; IC50 (C. albicans GGPTase; Table 1 Peptide Analogs): < 1000 nM
NC[C@H](NC(=O)[C@@H](N)CS)C(=O)N1CCN(C(c2ccc(F)cc2)c2ccc(F)cc2)CC1 [Compound 89g]				IC50 (human GGTase; Table 1): > 1000 nM; IC50 (human GGTase; Table 1 Peptide Analogs): > 1000 nM; IC50 (C. albicans GGPTase; Table 1): < 500 nM; IC50 (C. albicans GGPTase; Table 1 Peptide Analogs): < 500 nM
CC(C)C[C@@H](C(=O)O)N(C)C(=O)Cn1c(=O)n(C2CCN(C(=O)[C@@H](N)CS)CC2)c2ccccc21 [Compound 93]		> 1000	> 1000	
CC(C)C[C@H](NC(=O)C1(c2ccccc2)CCN(C(=O)[C@@H](N)CS)CC1)C(=O)N[C@@H](C)C(=O)N[C@@H](C)C(=O)O [Compound 99b] (HELM PEPTIDE1{C.[O=C(C1(c2ccccc2)CCN([*:1])CC1)[*:2]].L.A.A}$$$$V2.0)		> 500	< 200	
